Test results: patent US8420852B2, “Phospholipase A2 inhibitors and their use in treating neurological injury and disease” (The Regents of the University of California, priority 2007, dated 2013)
“Also recorded” adds a separate entry of the source.

What was measured:
Assay type in all cases: in vivo, mouse
[1] = system: BALB/c mice with spinal cord contusion; experiment: spinal cord contusion (SCI) model, locomotor recovery and histology
[2] = system: fatty acids attached to phospholipid classes in spinal cord; experiment: lipid profiling of spinal cords of EAE mice (fatty acid hydrolysis); conditions: for Treatment: mean ± SD, n=3; for % Difference: treated EAE vs naive
Method: Spinal cords were removed from vehicle and inhibitor treated animals at the peak stage of disease when the vehicle-treated mice reached the clinical score of 4, and the tissue snap frozen in liquid nitrogen. Lipid profiling was carried out by Lipomics Technology Inc. (West Sacramento, Calif.). The tissues were then extracted for either TrueMass® lipid profiling, or an eicosanoid inflammatory panel analysis. The lipids from the tissues were extracted in the presence of authentic internal standards as previously described (55), using chloroform:methanol (2:1 v/v). Individual lipid classes within each extract were separated by liquid chromatography (Agilent Technologies model 1100 Series). Each lipid class was trans-esterified in 1% sulfuric acid in methanol in a sealed vial under a nitrogen atmosphere at 100° C. for 45 min. The resulting fatty acid methyl esters were extracted from the mixture with hexane containing 0.05% butylated hydroxytoluene and prepared for gas chromatography by sealing the hexane extracts under nitrogen. Fatty acid methyl esters were separated and quantified by capillary gas chromatography (Agilent Technologies model 6890) equipped with a 30 m DB-88MS capillary column (Agilent Technologies) and a flame-ionization detector. Lipomic Surveyor® software was used to visualize changes within the treated groups. Experiments were repeated with 3 different samples (n=3), and all the detection and analysis was done blind.
As PLA2s hydrolyze fatty acids from the sn-2 position of phospholipids, a comprehensive profiling was carried out of 40 fatty acids (FAs) that are attached to 5 phospholipid classes in extracts of spinal cords of naive mice, EAE mice treated with vehicle, and PLA2 inhibitor-treated EAE mice. […] These tissues were taken from the same groups of mice used for the chemokine/cytokine assay described above.

[3] = system: SJL/J mice induced with EAE; experiment: EAE model of multiple sclerosis, clinical score

## CCCCCCCCCCCCCCC(=O)C(=O)NCC(=O)OC [AX115]
[1]; 300 to 1000 μm rostral and caudal to lesion epicenter, 28 dpi, vs vehicle
  neuron survival in ventral horn (cresyl violet): significantly greater neuron survival; also recorded: significantly better survival of ventral horn neurons; also recorded: greater number of neuronal profiles
[1]; 1000 μm caudal to lesion epicenter, 28 dpi, vs vehicle
  serotonergic innervation: significantly greater serotonergic innervation; also recorded: marked increase of serotonergic fibers
[1]; 28 days after SCI, vehicle 4.6, 9-point scale
  BMS score: 6.6
[1]; daily i.p. 6.85 mg/kg from 1 h after contusion for 14 days, significant from 5 dpi, 6.85 mg/kg
  locomotor function (BMS scores) vs vehicle treated injured mice: marked improvement in the BMS scores; also recorded: markedly improved locomotor function
[1]; epicenter and 300 μm rostral and caudal, 28 dpi, vs vehicle
  myelin loss (Luxol fast blue): marked reduction of myelin loss
[1]; lesion epicenter and adjacent regions, 28 dpi, vs vehicle
  tissue sparing (GFAP staining): significant amount of tissue sparing; also recorded: significant tissue protection; also recorded: marked reduction in tissue loss
[1]; vs vehicle
  improvement in BMS subscores (fine locomotor control): 4 points
  increase in the density of 5-HT fibers within the lateral funiculi and ventral horns: 3 fold
[2]; Cardiolipin - arachidic, naive 464.0 ± 69.4
  Treatment: 324.4 ± 27.5 nmol
[2]; Cardiolipin - arachidic
  % Difference: 30.1%
[2]; Cardiolipin - eicosapentaenoic, naive 16.1 ± 4.8
  Treatment: 3.2 ± 5.5 nmol
[2]; Cardiolipin - eicosapentaenoic
  % Difference: 80.3%
[2]; Phosphatidylcholine - arachidic, naive 347.9 ± 20.1
  Treatment: 269.4 ± 24.9 nmol
[2]; Phosphatidylcholine - arachidic
  % Difference: 22.5%
[2]; Phosphatidylcholine - eicosenoic, naive 1666.2 ± 46.4
  Treatment: 1393.4 ± 52.5 nmol
[2]; Phosphatidylcholine - eicosenoic
  % Difference: 16.4%
[2]; Phosphatidylcholine - erucic
  % Difference: 22.4%
[2]; Phosphatidylserine - tetracosahexanoic, naive 9.7 ± 0.8
  Treatment: 6.4 ± 0.6 nmol
[2]; Phosphatidylserine - tetracosahexanoic
  % Difference: 33.8%
[2]; Phosphatidylserine-1-enyl-octadecenoic, naive 217.4 ± 37.9
  Treatment: 133.3 ± 32.5 nmol
[2]; Phosphatidylserine-1-enyl-octadecenoic
  % Difference: 38.7%
[3]; delayed treatment from peak of first attack, did not differ from vehicle
  mean maximal peak clinical grade at day 17: ~3
[3]; delayed treatment from peak of first attack, vehicle 2.3
  clinical score on day 35: 2.8
[3]; delayed treatment from peak of first attack, vehicle about 1.4
  clinical score on day 23: 2.5
[3]; delayed treatment from peak of first clinical attack (day 14), daily i.p.
  clinical course of EAE vs vehicle control: prevents remission of the disease; also recorded: remission was prevented; also recorded: worsened the disease
[3]; treatment before onset of symptoms, from day 5/6 after immunization, daily for 3 weeks
  clinical course of EAE vs vehicle control: no statistical significance; also recorded: did not differ from vehicle treated control mice; also recorded: did not substantially differ from vehicle treated controls
